Test results published in patent US7858637B2, “Administration of TLR7 ligands and prodrugs thereof for treatment of infection by hepatitis C virus” (priority 2003, dated 2010).

Tests used:
human TLR7 = target: T1, human TLR7 (Homo sapiens, UniProt Q9NYK1); assay: HEK293-hTLR7 NF-kB luciferase reporter (C23) assay; conditions: read-out: mean fold induction of luciferase activity compared to the no drug control
T1 sequence (Q9NYK1 27-1049): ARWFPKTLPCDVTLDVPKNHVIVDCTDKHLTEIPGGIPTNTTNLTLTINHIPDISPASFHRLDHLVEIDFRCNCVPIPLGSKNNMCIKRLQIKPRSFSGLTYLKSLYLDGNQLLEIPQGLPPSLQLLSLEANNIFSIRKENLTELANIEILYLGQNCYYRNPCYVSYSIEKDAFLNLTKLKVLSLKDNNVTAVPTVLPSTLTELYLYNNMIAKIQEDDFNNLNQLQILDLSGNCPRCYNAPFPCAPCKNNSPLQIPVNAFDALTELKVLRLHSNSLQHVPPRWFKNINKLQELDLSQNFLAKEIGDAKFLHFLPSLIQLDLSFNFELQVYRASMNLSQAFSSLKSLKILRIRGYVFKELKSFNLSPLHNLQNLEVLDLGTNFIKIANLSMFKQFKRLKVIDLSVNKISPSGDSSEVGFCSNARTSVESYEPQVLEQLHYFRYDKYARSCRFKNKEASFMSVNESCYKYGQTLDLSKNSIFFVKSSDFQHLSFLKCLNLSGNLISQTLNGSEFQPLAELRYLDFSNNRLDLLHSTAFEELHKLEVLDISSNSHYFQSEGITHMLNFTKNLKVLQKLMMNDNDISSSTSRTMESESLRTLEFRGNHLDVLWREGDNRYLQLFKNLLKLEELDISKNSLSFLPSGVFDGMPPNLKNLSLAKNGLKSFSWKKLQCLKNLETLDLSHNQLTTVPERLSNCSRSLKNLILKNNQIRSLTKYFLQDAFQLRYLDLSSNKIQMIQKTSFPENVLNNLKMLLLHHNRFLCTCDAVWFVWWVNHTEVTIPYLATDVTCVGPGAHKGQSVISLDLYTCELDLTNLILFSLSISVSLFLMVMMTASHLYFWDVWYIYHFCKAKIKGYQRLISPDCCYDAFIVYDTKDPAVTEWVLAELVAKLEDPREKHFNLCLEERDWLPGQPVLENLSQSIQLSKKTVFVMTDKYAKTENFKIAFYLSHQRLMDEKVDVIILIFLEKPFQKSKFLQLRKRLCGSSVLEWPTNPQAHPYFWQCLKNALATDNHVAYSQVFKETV
Protocol: A stable HEK293-hTLR7 cell line was obtained from Invivogen (San Diego, Calif.), transfected with pNiFty2-Luc, an NF-kB inducible luciferase reporter plasmid (Invivogen) and (dual) stable transfectants selected. The resultant dual (hTLR7/pNiFty2-Luc) cell lines were functionally tested by response to loxoribine and isatoribine as measured by fold luciferase induction relative to a no drug control. […] See, e.g., Hemmi H. et al., Nat.
For a typical C23 assay, cells are seeded at 6×10^4 cells/well in 96 well plates and 4-24 hours later are treated with various concentrations of compound. After 2-48 hours exposure the cell monolayers are lyzed with passive lysis buffer (Promega) and the firefly luciferase assay carried out using the luciferase assay reagent (Promega) as specified by the manufacturer. Relative luciferase activities are expressed as folds of induction compared to the no drug control. A two-fold induction over background is considered a bona fide TLR7 agonist, dependent on this being a statistically significant increase.
In Table 1, isatoribine, was added to C23 cells for forty-eight hours, and the cells were then harvested and assayed for luciferase activity. Each time-point was assayed in triplicate.
Each time-point was assayed in triplicate.

[1] = test system: human peripheral blood mononuclear cells (PBMC); assay: PBMC assay of interferon alpha release (masking); assay type: cell-based; conditions: Homo sapiens, PBMC; Table 9; 100 μM; 24 hours exposure; same blood donor; read-out: Amount of INFa relative to that induced by isatoribine at 100 μM
Protocol: A typical experiment would use human peripheral blood mononuclear cells (PBMC) isolated from a healthy donor and placed in replicate cell culture wells; typically, 2×10^6 to 5×10^6 cells are placed in each well. The PBMC are incubated in the absence of test compounds at 37° C. in a humidified atmosphere containing 5% CO2 for 24 hours to allow stabilization to the culture conditions, and then 100 micromolar isatoribine, the TLR7 ligand and a corresponding TLR7 ligand prodrug are added to separate wells containing PBMC from the same donor; untreated controls are included. The concentrations of TLR7 ligand and TLR7 ligand prodrug may be varied to suit the particular experiment, and the PBMC cultures are then incubated at 37° C. in a humidified atmosphere containing 5% CO2 for a period of time ranging from two hours to 48 hours. Samples of cell culture supernate media are taken during the incubation. These are assayed for cytokine production by ELISA. Additionally the amount of TLR7 ligand and TLR7 ligand prodrug remaining at the end of the incubation may be assayed by LC-MS. Cytokine production is calculated relative to production in the isatoribine control, following subtraction of the cytokine production in untreated controls.
Thus, if the TLR7 ligand generates more interferon alpha (a conveniently measured cytokine) than does the corresponding TLR7 ligand prodrug after a similar duration of exposure and concentration, the TLR7 ligand prodrug may be deemed a “masked” TLR7 ligand prodrug.

[2] = Toxicology studies, GI tolerance in beagle dogs; assay type: in vivo, beagle dog; conditions: dog, in vivo, iv
Description: We compared in the dog the oral toxicology of 21 and 24, and the intravenous toxicology of 21. We observed that the oral toxicology of 24 was much more like intravenous 21 than it was like oral 21.

SMILES: Nc1nc2c(sc(=O)n2[C@@H]2O[C@H](CO)[C@@H](O)[C@H]2O)c(=O)[nH]1 [Compound 21, 7-thia-8-oxoguanosine]
- fold induction at 50 µM (human TLR7): 3.1
- fold induction at 100 µM (human TLR7): 3.4
- fold induction at 250 µM (human TLR7): 6.2
- fold induction at 500 µM (human TLR7): 10.9
- Emax at 100 µM [1]: 100%
- Emesis or loose stool ([2]; 12.5 mg/kg): Neg.
- GI lesions or irritation ([2]; 12.5 mg/kg): Neg.
- Emesis or loose stool ([2]; 25 mg/kg): Neg.
- GI lesions or irritation ([2]; 25 mg/kg): Neg.
- Emesis or loose stool ([2]; 50 mg/kg): +
- GI lesions or irritation ([2]; 50 mg/kg): Neg.
- Emesis or loose stool ([2]; 100 mg/kg): ++
- GI lesions or irritation ([2]; 100 mg/kg): Neg.
